Experimental data published in patent US20050065348A1, “Pyridin-2-yl-methylamine derivatives for treating opioid dependence” (priority 2001, published 2005).
Counter-ions that a name gives are not always drawn.

What was measured:
[1] = system: morphine withdrawal syndrome (hyperalgesia); experiment: Effects on morphine dependence: naloxone-precipitated withdrawal hyperalgesia (Randall and Selitto nociceptive thresholds); assay type: in vivo; details: rat, s.c. osmotic mini-pumps 2 weeks
Method: The products are administered by means of osmotic mini-pumps (model 2ML2; flow rate 5 μl/hr: Alza Corporation, Palo Alto, USA) implanted subcutaneously on the first day of the experiment and extracted two weeks later. The pump is set in place through a transversal incision made in the skin of the dorsal face of the rat, the liberation orifice being directed towards the head.
The compound F is administered at 0.63 mg/rat/day (5.25 mg/ml) in solution in distilled water. […] The pumps implanted in the control animals release 0.12 ml of 0.9% NaCl (saline)/rat/day; the doses referring to the weight of the non salified compound.
The study consists of two phases: a phase of chronic treatment lasting 2 weeks, and a withdrawal phase lasting 1 week.
On the experiment's first day the rats were given implants of two osmotic mini-pumps.
After two weeks of chronic treatment, the withdrawal phase began. After taking base measurements on day 14, all the animals received a sub-cutaneous injection of naloxone at 0.63 mg/kg. Next, 30 minutes, 1 hr, 2 hr, 4 hr, and 8 hr after the injection, another series of measurements was taken. The pumps were extracted after the last measurement at 8 hr after the naloxone injection. A series of measurements was also taken daily 24 hr to 4 days after the naloxone injection. During this withdrawal period, the nociceptive thresholds were measured using the Randall and Selitto method (Arch. Int. Pharmacodyn. 1957, CXI, 409) in which increasing pressure is applied to the back paw until the vocalisation threshold is reached. The results are expressed in grams and a 750 g limit is imposed.
In order to evaluate the nociceptive thresholds, the areas under the curves (AUCs) were determined and processed by a variance analysis (ANOVA). The post-hoc comparisons (i.e. those following the variance analysis when the latter is significant) were made using the Student-Newman-Keuls (SNK) test for comparing groups with each other. A statistically significant effect was defined at p<0.05.

5-HT1A receptor = target: T1, 5-HT1A receptor (Rattus norvegicus, UniProt P19327); experiment: Affinity for the 5-HT1A receptor (3H-8-OH-DPAT displacement); assay type: binding; details: Tissue: cerebral cortex of rat, average of at least 3 experiments
T1 construct: Tissue: cerebral cortex of rat; from tissue; host or cells: rat cerebral cortex
T1 sequence (P19327 1-422): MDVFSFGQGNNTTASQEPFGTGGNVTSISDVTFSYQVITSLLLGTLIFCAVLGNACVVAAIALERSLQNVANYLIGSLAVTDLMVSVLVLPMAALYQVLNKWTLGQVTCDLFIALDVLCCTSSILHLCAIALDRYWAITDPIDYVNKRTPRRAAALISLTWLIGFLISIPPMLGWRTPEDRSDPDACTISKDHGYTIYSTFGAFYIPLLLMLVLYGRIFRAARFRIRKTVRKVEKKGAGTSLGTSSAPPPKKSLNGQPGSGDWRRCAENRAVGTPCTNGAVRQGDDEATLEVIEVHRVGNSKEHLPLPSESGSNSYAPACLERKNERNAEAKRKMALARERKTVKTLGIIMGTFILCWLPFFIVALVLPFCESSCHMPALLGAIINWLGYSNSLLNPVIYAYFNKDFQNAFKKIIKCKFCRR
Method: Measurement of the affinity of compound F and reference products for the 5-HT1A receptor
Study of the bond with the 5-HT1A receptor was carried out according to a standard method (Naunyn-Schmiedeberg's Arch. Pharmaco. 1991, 343, 106). The inhibition constants (Ki) of the products according to the invention were estimated from displacement experiments using the version 4 RADLIG non-linear regression programme of EBDA (Equilibrium Binding Data Analysis) (Biosoft, Cambridge, UK, Mc Pherson, 1985). The dissociation constants of the radioactive ligands used in the calculations are 0.31 nmole for ^3H-8-OH-DPAT. The values of pKi (−logKi) are provided under the form of average±SEM of at least 3 experiments.

Compound	AUC of nociceptive thresholds 30 minutes to 4 days after naloxone, versus control animals ([1]; co-treatment morphine 5 mg/rat/day + compound 0.63 mg/rat/day, naloxone 0.63 mg/kg s.c., SNK p>0.05)	AUC of nociceptive thresholds 30 minutes to 4 days after naloxone, compound alone versus control animals ([1]; saline + compound 0.63 mg/rat/day, no morphine, p>0.05)	pKi site 5-HT1A (5-HT1A receptor)	Effect on hyperalgesia / morphine withdrawal syndrome (AUC of nociceptive thresholds) ([1]; co-treatment morphine 5 mg/rat/day + compound 2.5 mg/rat/day, naloxone 0.63 mg/kg s.c., SNK p<0.05 vs control)	Ki (5-HT1A receptor; read-out: pKi site 5-HT1A (converted)) [nM]
Cc1ccc(CNCC2(F)CCN(C(=O)c3ccc(F)c(Cl)c3)CC2)nc1 [compound F, (3-Chloro-4-fluorophenyl)-(4-fluoro-4-{[(5-methyl-pyridin-2-yl-methyl)-amino]-methyl}-piperidin-1-yl)-methadone fumarate]	statistically comparable with those obtained from the control animals	does not induce an effect on its own	9.07		
Clc1cnn(CCCCN2CCN(c3ncccn3)CC2)c1 [lesopitron, reference compound]				did not have any detectable effect on the hyperalgesia	55
